This passage reports D10 and D90 results from patent publication US11433031B2, “Method for manufacturing acetaminophen preparation” (NIPPON ZOKI PHARMACEUTICAL CO., LTD., priority 2016, dated 2022).

A short description of the first data set: Particle size distribution by laser-diffraction method (Mastersizer 2000, dry mode). The format is physicochemical. To be noted: dispersion air pressure 2 Bar, volume conversion. The source says:
The acetaminophen to be used in the manufacturing method of the present invention (also referred to as “the present acetaminophen”) has a particle size distribution such that d10 is generally 5 to 300 μm, preferably 10 to 200 μm, more preferably 15 to 100 μm, and d90 is generally 200 to 900 μm, preferably 250 to 800 μm, more preferably 300 to 700 μm. Although there are some differences in the particle size distribution among lots, the unpulverized acetaminophen generally has the above-specified particle size distribution. In contrast, although there are some differences in the particle size distribution of a pulverized product of acetaminophen among the manufacturers of the drug substance and production lots, the particle size distribution of a pulverized product of acetaminophen is generally such that the d10 is 3 to 10 μm and d90 is 100 to 250 μm, and therefore the particle diameters of the pulverized product of acetaminophen are smaller compared with those of the present acetaminophen. In the present invention, the particle size distribution is determined by a volume distribution evaluation employing a laser-diffraction scattering method (Mastersizer 2000: Malvern), and the terms “d10”, “d50”, and “d90” refer to particle diameters at a volume cumulative 10% point, a volume cumulative 50% point, and a volume cumulative 90% point, respectively, as observed from the smaller diameter side in the particle size distribution.
Each of unpulverized products of acetaminophen (lots A to D) and a pulverized product of acetaminophen (lot P) was subjected to a particle size distribution measurement using a particle measurement method (a dry mode measurement) by a laser-diffraction method. As a machine, a dry automated dispersion unit microtray (Mastersizer 2000, Malvern) was used, the dispersion compression air pressure was 2 Bar, and the analysis of particle size distribution was performed by a volume conversion method. The results of lots E, F, Q, and R are data which were obtained by another company using a different measurement apparatus under different measurement conditions from those employed in the test of the present invention. As shown in the results of Table 1, difference may sometimes occur depending on the measurement conditions and measurement apparatuses used in the measurement of particle size distribution.
With `CC(=O)Nc1ccc(O)cc1` [Lot A, acetaminophen], the D10 is 20 μm and the D90 came to 320 μm.
Consider `CC(=O)Nc1ccc(O)cc1` [Lot B, acetaminophen], for which the D10 was 30 μm and the D90 was found to be 551 μm.
`CC(=O)Nc1ccc(O)cc1` [Lot C, acetaminophen] showed a D10 of 26 μm and a D90 of 419 μm.
`CC(=O)Nc1ccc(O)cc1` [Lot D, acetaminophen] displayed a D10 of 20 μm and a D90 of 464 μm.
The corresponding values for `CC(=O)Nc1ccc(O)cc1` [Lot P, acetaminophen] are 3.7 μm and 166 μm.

Test in a further data set: not given
To be noted: data of another company, different apparatus and conditions; cited from earlier work.
Take `CC(=O)Nc1ccc(O)cc1` [Lot E, acetaminophen]: the D10 is given as 93 μm and the D90 is on record as 559 μm.
As to `CC(=O)Nc1ccc(O)cc1` [Lot F, acetaminophen], the D10 was 220 μm and the D90 is 663 μm.
As for `CC(=O)Nc1ccc(O)cc1` [Lot Q, acetaminophen], the D10 is given as 5.8 μm and the D90 was 104 μm.
For the compound `CC(=O)Nc1ccc(O)cc1` [Lot R, acetaminophen], the D10 was 9.7 μm and the D90 was 192 μm.
